According to ChEMBL document CHEMBL1124489, “Synthesis and thromboxane synthetase inhibitory activity of di- or tetrahydrobenzo[b]thiophenecarboxylic acid derivatives” (J Med Chem, 1989):

Experiments:
[1] = target: Thromboxane-A synthase (Oryctolagus cuniculus); experiment: Inhibition of thromboxane A2 synthetase
Thromboxane-A synthase = target: T1, Thromboxane-A synthase (Homo sapiens, UniProt P24557); experiment: Inhibition of platelet microsomal thromboxane A synthetase in humans
T1 sequence (P24557 whole entry): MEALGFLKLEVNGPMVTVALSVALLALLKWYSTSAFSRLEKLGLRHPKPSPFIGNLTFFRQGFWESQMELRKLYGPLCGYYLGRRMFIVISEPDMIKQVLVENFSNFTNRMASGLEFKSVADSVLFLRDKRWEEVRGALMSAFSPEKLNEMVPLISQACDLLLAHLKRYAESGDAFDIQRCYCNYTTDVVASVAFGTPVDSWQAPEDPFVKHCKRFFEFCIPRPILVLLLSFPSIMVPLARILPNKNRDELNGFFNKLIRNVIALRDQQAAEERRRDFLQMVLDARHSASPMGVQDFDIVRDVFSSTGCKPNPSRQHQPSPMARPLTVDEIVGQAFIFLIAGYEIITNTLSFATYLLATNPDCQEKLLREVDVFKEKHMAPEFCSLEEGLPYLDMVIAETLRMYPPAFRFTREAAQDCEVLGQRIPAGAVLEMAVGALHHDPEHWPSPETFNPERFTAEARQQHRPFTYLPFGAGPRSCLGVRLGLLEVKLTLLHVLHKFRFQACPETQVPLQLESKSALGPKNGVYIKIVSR

[2] = target: T2, Thromboxane-A synthase (Rattus norvegicus) (UniProt P49430); experiment: Inhibition of rat serum thromboxane A2 synthetase after 2 hr of oral administration of compound
T2 sequence (whole entry): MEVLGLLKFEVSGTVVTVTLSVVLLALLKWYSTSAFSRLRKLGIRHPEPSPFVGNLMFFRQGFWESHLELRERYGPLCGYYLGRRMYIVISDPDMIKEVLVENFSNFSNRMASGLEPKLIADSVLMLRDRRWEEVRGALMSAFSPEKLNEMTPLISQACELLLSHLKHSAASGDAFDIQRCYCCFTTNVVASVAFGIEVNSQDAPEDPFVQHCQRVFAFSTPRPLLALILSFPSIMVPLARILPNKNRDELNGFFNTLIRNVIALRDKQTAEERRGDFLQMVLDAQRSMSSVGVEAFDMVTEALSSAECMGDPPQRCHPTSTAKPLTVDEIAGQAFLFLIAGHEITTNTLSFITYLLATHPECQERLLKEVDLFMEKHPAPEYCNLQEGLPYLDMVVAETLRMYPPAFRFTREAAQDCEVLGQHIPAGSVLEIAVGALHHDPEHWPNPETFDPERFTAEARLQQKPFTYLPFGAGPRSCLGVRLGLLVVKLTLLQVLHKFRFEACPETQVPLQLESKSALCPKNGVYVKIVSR

Oryctolagus cuniculus = experiment: Protection against sodium arachidonate induced sudden death in rabbit, 1 hr after peroral administration; format: functional; conditions: po
[3] = target: T2, Thromboxane-A synthase (Rattus norvegicus); conditions: Serum

SMILES | IC50 [1] [µM] | IC50 (Thromboxane-A synthase) [µM] | ID50 [2] [µmol/kg] | ED50 (Oryctolagus cuniculus) [µmol/kg] | ID50 [3] [µmol/kg]
O=C(O)C1CCc2cc(Cn3ccnc3)sc2C1 (centres undefined) | 0.026 | 0.02 | 0.027 | 0.9 | –
O=C(O)c1ccc(OCCn2ccnc2)cc1 [DAZOXIBEN] | – | – | – | 3.17 | 0.468
O=C(O)C1=Cc2sc(Cn3ccnc3)cc2CC1 [IMITRODAST] | – | 0.006 | 0.064 | 0.43 | –
